Reference: US4389414A, “Prostaglandin compositions” (Syntex (U.S.A.) Inc., priority 1981, dated 1983)
“And” between values parts separate entries of the source, which are not always exact repeats. Equal values may be shown once.

Experiment: Absorption rate of carbon-14 Compound A from different vehicles after SQ or IM injection (Example 2, Table I)
Format: in vivo, rats
Conditions: for Relative Percent Absorption: compared to aqueous buffer over 6 hours
Description: A series of experiments was carried out to determine the absorption rate of a compound which are useful in the composition of this invention as compared to other compositions which are not included within the scope of the claims of the invention. In each experiment 56 rats were used. Two groups of 27 rats are required for the test formulations and the two remaining rats are used to obtain blank plasma samples. […] Each composition is prepared by dissolving 2.7 milligrams of the compound in 10 milliliters of the solvent. This represents approximately 5 microcuries of carbon 14 and 41 micrograms of dl-9α,11α,15α-trihydroxy-16-phenoxy-17,18,19,20-tetranorprosta-4,5,13-trans-trienoic acid (Compound A). Blood samples from each of three rats from each group are obtained by […] at the following time points after injection: 15 minutes, 30 minutes, 45 minutes, 60 minutes, 2 hours, 3 hours, 4 hours, 5 hours and 6 hours. The two untreated rats are sampled to obtain blank plasma sample.
*Compared to aqueous buffer over 6 hours.

[1] = vehicle 90% Glycerin H2O, SQ, .15 ml, 5 μCi
[2] = vehicle Aq. Buffer, IM, .15 ml, 5 μCi
[3] = vehicle Aq. Buffer, SQ, .15 ml, 5 μCi
[4] = vehicle Glycerin, SQ, .15 ml, 5 μCi
[5] = vehicle PEG 400, IM, .15 ml, 5 μCi
[6] = vehicle PEG 400, SQ, .15 ml, 5 μCi
[7] = vehicle PEG 400, SQ, .30 ml, 10 μCi

O=C(O)CCC=C=CC[C@@H]1[C@@H](/C=C/[C@@H](O)COc2ccccc2)[C@H](O)C[C@@H]1O (relative stereo) [Compound A, dl-9α,11α,15α-trihydroxy-16-phenoxy-17,18,19,20-tetranorprosta-4,5,13-trans-trienoic acid]
Absorption Rate Constant Ka [1]: 6.5 hr^1
Relative Percent Absorption [1]: 51.5%
Absorption Rate Constant Ka [2]: 10.14 hr^1
Relative Percent Absorption [2]: 100%
Absorption Rate Constant Ka [3]: 10.14 hr^1
Relative Percent Absorption [3]: 60.9%
Absorption Rate Constant Ka [4]: 5.0 hr^1
Relative Percent Absorption [4]: 50.4%
Absorption Rate Constant Ka [5]: 3.7 hr^1
Relative Percent Absorption [5]: 35.5%
Absorption Rate Constant Ka [6]: 3.7 hr^1
Relative Percent Absorption [6]: 27.6% and 31.4%
Absorption Rate Constant Ka [7]: 3.7 hr^1
Relative Percent Absorption [7]: 26.2%
